These results are taken from publication PMC6553640 (Science signaling, 2018).

This assay has as its target T1, TRIB1 (Homo sapiens, UniProt Q96RU8).
T1 sequence (Q96RU8 84-372): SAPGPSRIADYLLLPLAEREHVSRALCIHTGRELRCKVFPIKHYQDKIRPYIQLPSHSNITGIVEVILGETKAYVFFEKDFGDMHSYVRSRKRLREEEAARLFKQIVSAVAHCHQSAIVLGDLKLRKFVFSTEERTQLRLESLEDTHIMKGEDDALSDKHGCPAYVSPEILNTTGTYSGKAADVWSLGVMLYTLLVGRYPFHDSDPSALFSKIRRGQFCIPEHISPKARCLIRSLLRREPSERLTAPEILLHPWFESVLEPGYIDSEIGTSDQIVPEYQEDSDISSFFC
Description: DSF destabilization. Type of assay: binding.

As to `COc1cccc(COc2cc(-n3cnc4ccccc43)sc2C(N)=O)c1` [GW804482X], the DSF destabilization result is listed as “although like TRIB2, destabilization was evident in the presence of GW804482X (fig. S3C)”.
